Data set [1] has as its system human-derived osteosarcoma cell line MG-63. The experiment in a line: Cytotoxicity evaluation, relative cell metabolic activity (CellTiter-Blue), MG-63. The data set is classed as cell-based. The conditions noted are these: 24 h, mean ± SD; for viability at 10 µM / viability at 25 µM / viability at 50 µM: Homo sapiens, read-out: Relative metabolic activity of MG-63 cells; for viability at 10 µM: MG-63, 10 µM; for viability at 25 µM: MG-63, 25 µM; for viability at 50 µM: MG-63, 50 µM. As to the method:
(§1) All target compounds were studied to determine their cytotoxic activity at various concentrations of each compound (10–50 µM) against human-derived osteosarcoma cell line MG-63 (ATCC, CRL-1427) and mouse-derived preosteoblast cell line MC3T3-E1 (ATCC, CRL-2593) (Table 4 and Figures S1-S4 in the Supporting Information). For the comparison, naturally occurring betulinic, oleanolic (1b) and ursolic (1c) acids as well as their 3-oxo analogs 2a-c and doxorubicin, were also subjected to the cytotoxicity tests.
(§2) Cytotoxicity of betulinic acid, ursolic acid and oleanolic acid derivatives was evaluated using human-derived osteosarcoma cell line MG63 (ATCC, CRL-1427) and mouse-derived preosteoblast cell line MC3T3-E1 (ATCC CRL-2593). Before conducting the experiments, both cell lines were continuously cultured according to the ATCC product sheet instructions. Briefly, both cell lines were expanded in α-MEM medium supplemented with 10% FBS and 1% pen-strep and maintained at 37 °C in a humidified atmosphere with 5% CO2.
(§3) Each cell line was plated at a concentration of 1 × 10^4 cells/well in 96-well plate. The plates were incubated for 24 h to allow cell attachment and growth. Bioactive substances were solubilized in methanol prior further dilution in cell culture media. Following the cell incubation period, the culture media was removed and the dilutions of active substance (10, 25 and 50 µM) in cell culture media were added. The culture medium only and its dilutions with methanol solution respective to the bioactive substance concentrations were used as the controls. […] Cells were treated with bioactive substance solutions for 24 h. After 24 h incubation, relative cell metabolic activity was assessed using CellTiter-Blue® (CTB) analysis (Promega, JAV). […] was measured at 590 nm using microplate reader (Infinite® 200 PRO, Tecan, USA). The relative cell metabolic activity was calculated for each bioactive substance concentration as well as for the controls. […] Statistically significant differences between sample groups are assessed using a one-way ANOVA test and then corrected using the Šídák multiple comparison test. Statistically significant differences were considered to be those with a P-values less than 0.05 (p < 0.05).
(§4) Cytotoxicity of betulinic acid, ursolic acid and oleanolic acid derivatives was evaluated using human-derived osteosarcoma cell line MG63 (ATCC, CRL-1427) and mouse-derived preosteoblast cell line MC3T3-E1 (ATCC CRL-2593). Before conducting the experiments, both cell lines were continuously cultured according to the ATCC product sheet instructions. Briefly, both cell lines were expanded in α-MEM medium supplemented with 10 % FBS and 1 % pen-strep and maintained at 37 °C in a humidified atmosphere with 5 % CO2.
(§5) […]
On the technique in general: Resazurin is reduced to fluorescent resorufin, in cell work by metabolically active cells.

The nature of data set [2]: Water solubility determination by quantitative 1H-NMR in D2O. It is filed as physicochemical. The conditions noted are these: D2O adjusted with NaOD, aqueous buffer, thermodynamic from solid; qNMR in D2O, pH 8.0-8.5 (NaOD), room temperature, potassium hydrogen phthalate external standard. From the text: The obtained PCT-derived sodium phosphonates were subjected to water solubility tests (Table 3). For this purpose, we used a quantitative ^1H-NMR approach in D2O, using potassium hydrogen phthalate as an external standard (for experimental details see Supporting Information). The presence of the basic forms of phosphonates[80] was ensured by the careful addition of NaOD, maintaining pH 8.0–8.5 during the quantification, which is 2–3 units higher than the pKa of phosphonic acid disalt. […] This is by at least two to three orders of magnitude higher than the reported solubilities of the parent natural triterpenic acids. […] Indeed, phosphonic acids are more acidic and easier ionizable than carboxylic acids. This ionic character helps to increase the aqueous solubility as exemplified by here described compounds.
Water solubility determination
To suspension of PCT phosphonate sample (10 mg) in D2O (500 µL) 0.8% solution of NaOD in D2O was added dropwise until pH = 8-8.5 (<100 µL). Obtained suspension was sonified in ultrasonic bath for 10 min. Undissolved particles were separated by centrifugation. Clear D2O solution was carefully transferred to NMR tube equipped with external standard vial.
Formula (1) was used to determine the solubility of PCT sample in the D2O.
[…]
SolPCT - solubility of PCT sample in D2O at room temperature (mg/mL)
IPCT - integral value of PCT signal of choice
Ist - integral value of external standard signal of choice
NPCT - number of integrated protons of PCT
Nst - number of integrated protons of external standard
V - volume of used D2O (mL) mst - mass of external standard (mg)
Mbet - molecular weight of PCT (g•mol−1)
Mst - molecular weight of external standard - potassium hydrogen phthalate (204.22 […]
Wst - assay of the external standard (99.5 %)

Data set [3] relates to mouse-derived preosteoblast cell line MC3T3-E1. Nature of the data set: Cytotoxicity evaluation, relative cell metabolic activity (CellTiter-Blue), MC3T3-E1. The data set is classed as cell-based. The conditions noted are these: 24 h, mean ± SD; for viability at 10 µM / viability at 25 µM / viability at 50 µM: Mus musculus, read-out: Relative metabolic activity of MC3T3-E1 cells; for viability at 10 µM: MC3T3-E1, 10 µM; for viability at 25 µM: MC3T3-E1, 25 µM; for viability at 50 µM: MC3T3-E1, 50 µM. As to the method: as §1, §2, §3, §4, §5

The conditions of data set [4]: cited from earlier work.

Converted amounts (≈) assume the structure as drawn.

A word on the solubility: it is the concentration that dissolves in the medium under given conditions. As to `CC1(C)CCC2(C(=O)OCP(=O)([O-])[O-])CCC3(C)C(=CCC4C5(C)CCC(=O)C(C)(C)C5CCC43C)C2C1.[Na+].[Na+]` (centres unmarked) [7b], in data set [1], the viability at 10 µM stood at 113 ± 8%, the viability at 25 µM came to 132 ± 5% and the viability at 50 µM was 119 ± 5%. The solubility at 10 min in data set [2] turned out to be 8000 µg/mL. For the same compound, in data set [3], the viability at 10 µM was determined as 131 ± 8%, the viability at 25 µM was determined as 150 ± 4% and the viability at 50 µM amounted to 104 ± 5%.
On to `CC1CCC2(C(=O)OCP(=O)([O-])[O-])CCC3(C)C(=CCC4C5(C)CCC(=O)C(C)(C)C5CCC43C)C2C1C.[Na+].[Na+]` (centres unmarked) [7c], for which, in data set [1], the viability at 10 µM was 96 ± 4%, the viability at 25 µM was determined as 98 ± 4% and the viability at 50 µM came out at 112 ± 3%. The solubility at 10 min in data set [2] stood at 26000 µg/mL. In data set [3], the viability at 10 µM came out at 91 ± 6%, the viability at 25 µM was determined as 90 ± 3% and the viability at 50 µM is 94 ± 5%.
Take `C=C(C)C1CCC2(C(=O)OCP(=O)([O-])[O-])CCC3(C)C(CCC4C5(C)CCC(O)C(C)(C)C5CCC43C)C12.[Na+].[Na+]` (centres unmarked) [8a]: in data set [1], the viability at 10 µM stood at 158 ± 5%, the viability at 25 µM came to 124 ± 25% and the viability at 50 µM was found to be 159 ± 17%. Also, the solubility at 10 min in data set [2] is 3000 µg/mL. In addition, in data set [3], the viability at 10 µM turned out to be 108 ± 5%, the viability at 25 µM worked out at 119 ± 4% and the viability at 50 µM came to 101 ± 5%.
Regarding `CC1(C)CCC2(C(=O)OCP(=O)([O-])[O-])CCC3(C)C(=CCC4C5(C)CCC(O)C(C)(C)C5CCC43C)C2C1.[Na+].[Na+]` (centres unmarked) [8b], the solubility at 10 min in data set [2] was determined as 7000 µg/mL.
Usually Aqueous solubility stands for the concentration that dissolves in the medium under given conditions. As for `C=C(C)[C@@H]1CC[C@]2(C(=O)O)CC[C@]3(C)[C@H](CC[C@@H]4[C@@]5(C)CC[C@H](O)C(C)(C)[C@@H]5CC[C@]43C)[C@@H]12` [Betulinic acid], in data set [4] (distilled water), the “Solubility in distilled water” value was 0.021 µg/mL (≈ 0.046 µM). In addition, in data set [4], the “Aqueous solubility at neutral pH” value is recorded as below 0.1 µg/mL and the “Aqueous solubility at pH 11.8” value is 42.1 µg/mL. Also, the “Solubility in sodium phosphate solution” value in data set [4] (pH 11.4, sodium phosphate solution) is given as 40.1 µg/mL (≈ 87.8 µM). Also, in data set [1], the viability at 10 µM is 74 ± 16%, the viability at 25 µM worked out at 91 ± 14% and the viability at 50 µM was found to be 112 ± 8%. For the same compound, in data set [3], the viability at 10 µM was 76 ± 7%, the viability at 25 µM was 56 ± 4% and the viability at 50 µM turned out to be 97 ± 7%.
For `C=C(C)[C@@H]1CC[C@]2(C(=O)O)CC[C@]3(C)[C@H](CC[C@@H]4[C@@]5(C)CCC(=O)C(C)(C)[C@@H]5CC[C@]43C)[C@@H]12` [Betulonic acid (2a), Betulonic acid], in data set [1], the viability at 10 µM came to 114 ± 2%, the viability at 25 µM came out at 96 ± 4% and the viability at 50 µM turned out to be 88 ± 8%. For the same compound, in data set [3], the viability at 10 µM worked out at 139 ± 6%, the viability at 25 µM was 170 ± 5% and the viability at 50 µM turned out to be 122 ± 1%.
Turning to `COc1cccc2c1C(=O)c1c(O)c3c(c(O)c1C2=O)C[C@@](O)(C(=O)CO)C[C@@H]3O[C@H]1C[C@H](N)[C@H](O)[C@H](C)O1` [Doxorubicin], in data set [1], the viability at 10 µM was 41 ± 2%, the viability at 25 µM is 19 ± 1% and the viability at 50 µM is 16 ± 2%. Also, in data set [3], the viability at 10 µM worked out at 72 ± 7%, the viability at 25 µM came to 60 ± 3% and the viability at 50 µM turned out to be 53 ± 3%.
For the compound `CC1(C)CC[C@]2(C(=O)O)CC[C@]3(C)C(=CC[C@@H]4[C@@]5(C)CC[C@H](O)C(C)(C)[C@@H]5CC[C@]43C)[C@@H]2C1` [Oleanolic acid (1b), Oleanolic acid], in data set [4], the “Aqueous solubility at neutral pH” value is below 0.1 µg/mL and the “Aqueous solubility at pH 11.8” value was 99.5 µg/mL. In data set [1], the viability at 10 µM was 77 ± 14%, the viability at 25 µM is 158 ± 13% and the viability at 50 µM worked out at 129 ± 11%. Also, in data set [3], the viability at 10 µM is 104 ± 7%, the viability at 25 µM came out at 97 ± 8% and the viability at 50 µM amounted to 96 ± 5%.
For the compound `CC1(C)CC[C@]2(C(=O)O)CC[C@]3(C)C(=CC[C@@H]4[C@@]5(C)CCC(=O)C(C)(C)[C@@H]5CC[C@]43C)[C@@H]2C1` [Oleanonic acid (2b), Oleanonic acid], in data set [1], the viability at 10 µM came to 151 ± 8%, the viability at 25 µM was found to be 160 ± 3% and the viability at 50 µM amounted to 103 ± 18%. In data set [3], the viability at 10 µM worked out at 110 ± 1%, the viability at 25 µM stood at 99 ± 5% and the viability at 50 µM worked out at 49 ± 12%.
As to `C[C@H]1[C@H](C)CC[C@]2(C(=O)O)CC[C@]3(C)C(=CC[C@@H]4[C@@]5(C)CC[C@H](O)C(C)(C)[C@@H]5CC[C@]43C)[C@H]12` [Ursolic acid (1c), Ursolic acid], the “Aqueous solubility (in words)” value in data set [4] (compared with oleanolic and betulinic acids) is reported as “similarly low aqueous solubility”. Further, in data set [1], the viability at 10 µM worked out at 66 ± 3%, the viability at 25 µM was determined as 64 ± 3% and the viability at 50 µM came to 28 ± 4%. In addition, in data set [3], the viability at 10 µM came out at 106 ± 5%, the viability at 25 µM stood at 83 ± 5% and the viability at 50 µM was found to be 99 ± 8%.
In the case of `C[C@H]1[C@H](C)CC[C@]2(C(=O)O)CC[C@]3(C)C(=CC[C@@H]4[C@@]5(C)CCC(=O)C(C)(C)[C@@H]5CC[C@]43C)[C@H]12` [Ursonic acid (2c), Ursonic acid], in data set [1], the viability at 10 µM is 76 ± 8%, the viability at 25 µM was found to be 67 ± 4% and the viability at 50 µM is 67 ± 4%. In data set [3], the viability at 10 µM worked out at 74 ± 2%, the viability at 25 µM amounted to 107 ± 7% and the viability at 50 µM turned out to be 72 ± 9%.
On to “Sodium (3-oxo-(17R)-17-28-norlup-20(29)-en)-2-oxoethyl-phosphonate [7a]”, for which the “Relative metabolic activity of MG-63 cells” value is recorded as 1.10 ± 0.04 in data set [1] (10 µM), 1.30 ± 0.06 in data set [1] (25 µM) and 1.09 ± 0.04 in data set [1] (50 µM). The “Relative metabolic activity of MC3T3-E1 cells” value in data set [3] (10 µM) amounted to 1.41 ± 0.01; in data set [3] (25 µM) it was 1.27 ± 0.05; in data set [3] (50 µM), 1.13 ± 0.03.

Source of the values: article PMC11564732, “Synthesis and preliminary cytotoxicity evaluation of water soluble pentacyclic triterpenoid phosphonates” (Scientific Reports, 2024).
